Results published in patent publication US20190374601A1, “METHODS FOR TREATING FUNGAL INFECTIONS” (priority 2017, published 2019).
Starred links: 1 amine or outer side, 2 acyl side, 3 side chain; linkers in the order of their positions; H or OH if unused. Positions of bridges follow the written chain, without caps; N, C: chain ends. Non-standard residues stand in square brackets, D forms with d. Residues, ends and D or L forms follow the SMILES beside them. *: point of attachment. Orn(4R-OH,5R-OCH2CH2NMe3+) = C[N+](C)(C)CCO[C@@H](N[*:3])[C@H](O)C[C@H](N[*:1])C(=O)[*:2]; pTerphenylCO(4''-OnC5H11) = CCCCCOc1ccc(-c2ccc(-c3ccc(C(=O)*)cc3)cc2)cc1; hTyr(3S-OH,4S-OH) = N[C@H](C(=O)O)[C@H](O)[C@@H](O)c1ccc(O)cc1; Pro(3S-OH,4S-Me) = C[C@H]1CN[C@H](C(=O)O)[C@H]1O; Hyp = O=C(O)[C@@H]1C[C@@H](O)CN1

What was measured:
Assay type in all cases: in vivo
[1] = test system: T. mentagrophytes ATCC 24953; assay: Hair root invasion test (mycological evaluation), T. mentagrophytes dermatophytosis guinea pig model, Example 1; conditions: evaluated study day 10, relative to vehicle control
Description: A request was made to the Animal Resource Center (ARC) at Case Western Reserve University to order the required number of male albino Harlan-Sprague-Dawley Guinea-Pigs (San Diego, Calif.) with a body weight of 450-500 g. Animals were allowed to acclimate for a minimum of 5 days prior to use. Environmental controls for the animal room were set to maintain a temperature of 16 to 22° C., a relative humidity of 30-70%, and a 12:12 light-dark cycle.
T. mentagrophytes ATCC 24953 was used as the infecting fungus. This strain was selected because it can cause skin infection and results in inflammatory reaction.
T. mentagrophytes (from frozen stock) was sub-cultured on Potato Dextrose Agar plates and incubated at 30° C. for 5-7 days. The colonies were scraped from the plates using sterile normal saline (NaCl 0.85%) solution. After washing for three times with sterile saline the conidia were re-suspended in the same solution. Ten-fold dilutions of conidia suspension were prepared and counted using a hemacytometer. Working suspension of conidia was prepared at a final concentration of 1×10^7 Colony Forming Units (CFUs)/100 μL in normal saline.
Each animal was anesthetized with a cocktail of xylazine and ketamine: 0.2 mL intramuscularly. Using an electric shaver, hair was clipped on left side of the guinea pig back. A closer shave was done with a disposable razor. Using a stencil, a square of 2.5 cm×2.5 cm was marked. The marked skin area was abraded with sterile fine grit sandpaper. A cell suspension containing 1×10^7 conidia in 100 μL was applied and rubbed thoroughly on the abraded skin.
Beginning two hours post inoculation, animals were treated subcutaneously (SQ) for CD101 and orally (PO) terbinafine once daily for a period of nine days, or once a week on days 1 and 8.
Study Day 1: Infected the animals with T. mentagrophytes and begin treatments.
Study Day 9 (treatment day 9): End treatments.
(§1) Study Day 10: Clinical evaluation of the four quadrants in the marked area was done. Hair samples were obtained from each quadrant (10 per quadrant). Hairs were planted in Potato Dextrose Agar, and incubated for 48 h for mycological evaluation. Procedures for clinical and mycological evaluations are described below.
CD101 was administered SQ in 0.3 mL, while the terbinafine was given orally in 0.3 mL. Vehicle treated group was also included.
(§2) Hair samples were removed with a sterile forceps from four quadrants. Ten hair samples from each quadrant were inoculated onto the corresponding quadrant on the Potato Dextrose agar plate and incubated at 30° C. for 2 days. The fungal growth at the hair root was examined under a stereomicroscope. The effectiveness of a compound in reducing the number of mycologically positive hair sample per treated group is expressed as percentage relative to the vehicle control group of animals using the following formula:
where, T=Positive hair in the test group, K=Positive hair in the Untreated control.

T. mentagrophytes [2] = assay: Hair root invasion test (mycological evaluation), T. mentagrophytes dermatophytosis guinea pig model, different doses once weekly, Example 2; conditions: evaluated study day 12, relative to vehicle control
Description: (§3) Procedures for animal care and use, preparation of standard inoculum, and infection of the animals were carried out following the same steps as described in Example 1.
(§4) Infected guinea pigs were randomized into the following (1)-(5) groups (10 per group) (see Table 4): (1) a vehicle control (water+mannitol); (2) terbinafine 10 mg/kg PO days 1 and 8, as a positive control; (3) CD101 10 mg/kg SQ days 1 and 8; (4) CD101 20 mg/kg SQ days 1 and 8; and (5) CD101 40 mg/kg SQ days 1 and 8.
(§5) Animals were treated with CD101 SQ or PO (for terbinafine) once a week on days 1 and 8.
(§6) Study Day 1: Infect the animals with T. mentagrophytes and begin treatments.
(§7) Study Day 8: Last treatment.
as §1, with “Day 12:” for “Day 10:”, “area is” for “area was”, “each quadrant. Hairs” for “each quadrant”, “per quadrant)” for “per quadrant). Hairs”
(§8) The compounds was administered SQ or PO (0.3 mL/kg […]).
as §2, with “with” for “with a”, “was” for “is”, “untreated” for “vehicle”
where T=Positive hair in the test group, K=Positive hair in the Untreated control.

T. mentagrophytes [3] = assay: Clinical evaluation of infected skin, T. mentagrophytes dermatophytosis guinea pig model, different doses once weekly, Example 2; conditions: evaluated study day 12, relative to vehicle control
Description: as §3, §4, §5, §6, §7
as §1, with “Day 12:” for “Day 10:”, “area is” for “area was”, “each quadrant. Hairs” for “each quadrant”, “per quadrant)” for “per quadrant). Hairs”
as §8
Clinical assessment of local changes of the infected skin area was scored as follows:
1=Few slightly erythematous places on the skin
2=Well-defined redness, swelling with bristling hairs.
3=Large areas or marked redness incrustation, scaling, bald patches, ulcerated in places.
4=Partial damage to the integument and loss of hair
5=Extensive damage to the integument and complete loss of hair at the site of infection.
Any other local skin reactions were noted. The assessment of clinical evaluation in the change of scores per treatment group was expressed as percentage relative to the untreated control group of animals using the following formula:
where T=Scores in the test group. K=Scores in the untreated control

CCCCCOc1ccc(-c2ccc(-c3ccc(C(=O)N[C@H]4C[C@@H](O)[C@@H](OCC[N+](C)(C)C)NC(=O)[C@@H]5[C@@H](O)[C@@H](C)CN5C(=O)[C@H]([C@@H](C)O)NC(=O)[C@H]([C@H](O)[C@@H](O)c5ccc(O)cc5)NC(=O)[C@@H]5C[C@@H](O)CN5C(=O)[C@H]([C@@H](C)O)NC4=O)cc3)cc2)cc1 [CD101] ({pTerphenylCO(4''-OnC5H11)}-[Orn(4R-OH,5R-OCH2CH2NMe3+)]T[Hyp][hTyr(3S-OH,4S-OH)]T[Pro(3S-OH,4S-Me)]; lactam 1-C)
Percent Efficacy Mycological ([1]; 35 mg/kg SQ daily for nine days): 88.0% | Percent Efficacy Mycological ([1]; 35 mg/kg SQ once a week (days 1 and 8)): 85.5% | Percent Efficacy Mycological (T. mentagrophytes [2]; 10 mg/kg SQ days 1 and 8): 80.9% | Percent Efficacy Mycological (T. mentagrophytes [2]; 20 mg/kg SQ days 1 and 8): 82.9% | Percent Efficacy Mycological (T. mentagrophytes [2]; 40 mg/kg SQ days 1 and 8): 98.5% | Percent Efficacy Clinical (T. mentagrophytes [3]; 10 mg/kg SQ days 1 and 8): 90.5% | Percent Efficacy Clinical (T. mentagrophytes [3]; 20 mg/kg SQ days 1 and 8): 94.2% | Percent Efficacy Clinical (T. mentagrophytes [3]; 40 mg/kg SQ days 1 and 8): 98.4%
